The record followed here is patent US20250114363A1, “PHARMACEUTICAL COMPOSITION COMPRISING ALLOPURINOL, FEBUXOSTAT, OR A PHARMACEUTICALLY ACCEPTABLE SALT THEREOF FOR PREVENTING OR TREATING CARDIOVASCULAR DISEASE OF SUBJECT HAVING HIGH SERUM URIC ACID LEVEL” (Indream Healthcare Inc., priority 2022, published 2025).

SMILES strings stand for the structures.

Common to all, as to type: in vivo, human
Test [1] deals with patients with gout and a history of major cardiovascular diseases. As to the kind of experiment: Clinical trial analysis: risk of major cardiovascular events by serum uric acid concentration (<6 vs >=6) per patient group. The following applies: for increase in risk of occurrence of major cardiovascular events (hazard ratio): serum uric acid maintained at or above 6 vs below 6. The procedure: (§1) A multicenter, randomized, double-blind non-inferiority trial was performed. The details of the clinical trial design have been published previously. An independent data and safety monitoring committee with access to unblinded data monitored the clinical trial. The statistical analysis for the data and the safety monitoring committee was performed by an independent statistical group (WebbWrites).
(§2) The patients were regarded as having a history of major cardiovascular diseases, if they had myocardial infarction, hospitalization for unstable angina, stroke, hospitalization for transient ischemic attack, peripheral vascular disease, or diabetes mellitus symptoms. All participants provided a prior informed consent form.
The patients were randomly assigned so that they received febuxostat or allopurinol administered once a day in a double-blind manner. The randomization was stratified according to the estimated creatinine clearance at baseline (patient group having an estimated creatinine clearance ≥60 ml per minute vs patient group having an estimated creatinine clearance ≥30 and <60 ml per minute).
The dose of allopurinol was modified according to a kidney function. The patients with the estimated creatinine clearance 60 ml or more per minute i) initially received allopurinol at a dose of 300 mg once a day, and the dose was increased in 100 mg increments monthly until the patient had the serum uric acid concentration of less than 6.0 mg per deciliter or the dosage of allopurinol was 600 mg once a day. The patient having the estimated creatinine clearance of 30 ml or more and less than 60 ml per minute initially received 200 mg of allopurinol, and then the dose was increased in 100 mg increments until the patient either had the serum uric acid concentration of less than 6.0 mg per deciliter or was receiving the allopurinol dose of 400 mg once daily.
The dose of febuxostat was not modified according to the kidney function. The patients who were randomly assigned to receive febuxostat initially received 40 mg once a daily, and continued to receive the same dosage if the serum uric acid concentration was less than 6.0 mg per deciliter after 2 weeks of the treatment. If the serum uric acid concentration was higher than 6.0 mg per deciliter at 2nd week visit, the dose of febuxostat was increased to 80 mg once daily for the remainder of the trial.

For test [2] the test system is unchanged. In words: Clinical trial: rate of gout flare. The conditions noted are these: overall. The procedure: as §1, §2
All patients received prophylaxis for the first 6 months of the randomly assigned treatment.

Test [3] shares this test system. As to the kind of experiment: Clinical trial: proportion of patients reaching serum uric acid concentration targets. The following applies: febuxostat group vs allopurinol group. As for the experimental part: A multicenter, randomized, double-blind non-inferiority trial was performed. The details of the clinical trial design have been published previously. An independent data and safety monitoring committee with access to unblinded data monitored the clinical trial. The statistical analysis for the data and the safety monitoring committee was performed by an independent statistical group (WebbWrites). […] The patients were regarded as having a history of major cardiovascular diseases, if they had myocardial infarction, hospitalization for unstable angina, stroke, hospitalization for transient ischemic attack, peripheral vascular disease, or diabetes mellitus symptoms. All participants provided a prior informed consent form. The dose of allopurinol was modified according to a kidney function. […] The dose of febuxostat was not modified according to the kidney function. The patients who were randomly assigned to receive febuxostat initially received 40 mg once a daily, and continued to receive the same dosage if the serum uric acid concentration was less than 6.0 mg per deciliter after 2 weeks of the treatment. […] During the period, the administration of a double-blind and double-dummy trial medications was guided by an interactive voice-response system which was a procedure to prevent unblinding for the patients whose dose was not adjusted. After completing dose adjustment, the urate level was concealed from the investigators, and the treatment was managed throughout the trial using the interactive voice-response system. […] The patients with reduced kidney function or, the patients aged 65 years or older at randomization were visited at 9 and 15 months for monitoring the serum chemical profile. If the patient agreed to be monitored, but would not return for study visit, telephone contact was made, but such method was not preferred or recommended.

Consider `O=c1ncnc2[nH][nH]cc1-2` [allopurinol], for which the “effect on cardiovascular disease when serum uric acid concentration is maintained below 6” value in test [1] (allopurinol: aged 65 years or older or BMI 30 kg/m^2 or less) is “effectively prevented or treated”. Besides, the “increase in risk of occurrence of major cardiovascular events (hazard ratio)” value in test [1] (patient group aged 65 years or older) is “about 1.68 times”; in test [1] (patient group with BMI of 30 kg/m^2 or less), “about 1.78 times”. Moreover, the “rate of gout flare” value in test [2] was 0.63 per patient-year.

`Cc1nc(-c2ccc(OCC(C)C)c(C#N)c2)sc1C(=O)O` [febuxostat]: in test [1] (febuxostat: aged 65 or older, glucose 126 mg/dl or more, LDL-cholesterol 100 mg/dl or less, DBP 80 or lower, or stroke or peripheral vascular disease history), the “effect on cardiovascular disease when serum uric acid concentration is maintained below 6” value is given as “prevented or treated”. In test [2], the “rate of gout flare” value was found to be 0.68 per patient-year. Also, the “proportion of patients with maintenance of serum uric acid concentration at less than 6.0 mg per deciliter” value in test [3] (after 2nd week, at most times, difference not large) is on record as “higher proportion”. Besides, the “proportion of patients with serum uric acid concentration of less than 6.0 mg per deciliter” value in test [3] (at the 2nd week) was “higher”. Further, the “proportion of patients with serum uric acid concentration of less than 5.0 mg per deciliter” value in test [3] (entire trial) was “larger proportion”.
